# Values joined by “and” are separate entries in the source; they are usually repeats but may differ in a detail not shown here. Equal values may be shown once.
# What was measured:
# [1] = system: Renal cancer subpanel tumor cell lines; assay: NCI cytotoxicity screen, subpanel; format: cell-based, human; conditions: for CC50: read-out: LC50; for GI50 / TGI: subpanel value, Renal cancer
# [2] = system: Ovarian cancer subpanel tumor cell lines; assay: NCI cytotoxicity screen, subpanel; format: cell-based, human; conditions: for CC50: read-out: LC50; for GI50 / TGI: subpanel value, Ovarian cancer
# SF-295 = assay: NCI cytotoxicity screen; format: cell-based, human; conditions: for GI %: 10.0 μM one dose; for GI50: Homo sapiens
# K-562 [3] = assay: cells; conditions: Homo sapiens, K562
# HL-60(TB) = conditions: 10.0 μM one dose
# TK-10 = assay: NCI cytotoxicity screen; format: cell-based, human; conditions: for GI %: 10.0 μM one dose; for GI50: Homo sapiens
# HER2 = HER2 (Homo sapiens, UniProt P04626); assay: HER2 tyrosine kinase assay; format: biochemical; conditions: IC50 HER2 inhibition
# HER2, sequence (P04626 23-1255): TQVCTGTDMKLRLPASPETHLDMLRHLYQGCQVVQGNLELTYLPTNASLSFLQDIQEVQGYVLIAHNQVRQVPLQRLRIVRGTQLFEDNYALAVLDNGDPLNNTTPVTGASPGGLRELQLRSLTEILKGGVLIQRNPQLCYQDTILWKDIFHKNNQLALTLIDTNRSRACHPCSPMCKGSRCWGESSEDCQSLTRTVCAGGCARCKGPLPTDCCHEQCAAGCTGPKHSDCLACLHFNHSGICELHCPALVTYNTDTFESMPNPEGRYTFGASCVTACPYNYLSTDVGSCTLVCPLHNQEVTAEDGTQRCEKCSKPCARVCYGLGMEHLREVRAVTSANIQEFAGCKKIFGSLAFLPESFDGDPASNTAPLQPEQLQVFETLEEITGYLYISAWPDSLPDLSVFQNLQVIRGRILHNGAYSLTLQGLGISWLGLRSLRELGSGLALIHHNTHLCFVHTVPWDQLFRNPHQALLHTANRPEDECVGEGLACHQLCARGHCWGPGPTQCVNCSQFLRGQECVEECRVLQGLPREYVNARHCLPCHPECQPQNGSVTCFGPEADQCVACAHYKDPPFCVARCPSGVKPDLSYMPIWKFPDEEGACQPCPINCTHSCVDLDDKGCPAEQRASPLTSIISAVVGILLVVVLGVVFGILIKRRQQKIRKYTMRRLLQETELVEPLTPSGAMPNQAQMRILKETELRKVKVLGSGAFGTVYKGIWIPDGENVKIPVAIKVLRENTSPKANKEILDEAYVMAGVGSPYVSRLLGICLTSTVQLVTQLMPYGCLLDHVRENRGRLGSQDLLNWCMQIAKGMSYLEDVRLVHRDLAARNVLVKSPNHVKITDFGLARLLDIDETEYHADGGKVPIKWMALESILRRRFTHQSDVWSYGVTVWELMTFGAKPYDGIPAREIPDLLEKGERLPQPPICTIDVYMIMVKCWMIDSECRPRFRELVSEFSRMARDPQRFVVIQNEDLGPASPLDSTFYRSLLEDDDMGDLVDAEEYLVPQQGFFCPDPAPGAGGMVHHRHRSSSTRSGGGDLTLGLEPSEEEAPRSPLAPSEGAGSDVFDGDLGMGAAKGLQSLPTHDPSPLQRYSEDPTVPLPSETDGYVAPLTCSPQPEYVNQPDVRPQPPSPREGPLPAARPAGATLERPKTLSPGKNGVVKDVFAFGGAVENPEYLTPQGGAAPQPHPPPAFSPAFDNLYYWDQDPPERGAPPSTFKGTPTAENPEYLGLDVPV
# HT29 = assay: NCI cytotoxicity screen; format: cell-based, human; conditions: HT-29; for GI %: 10.0 μM one dose; for GI50: Homo sapiens
# HS 578T = assay: NCI cytotoxicity screen; format: cell-based, human; conditions: for GI %: 10.0 μM one dose, HS-578T; for GI50: Homo sapiens, Hs-578T
# K-562 [4] = conditions: 10.0 μM one dose
# MDA-MB-468 = assay: NCI cytotoxicity screen; format: cell-based, human; conditions: for GI %: 10.0 μM one dose; for GI50: Homo sapiens
# EGFR = EGFR (Homo sapiens, UniProt P00533); assay: biochemical; conditions: IC50 EGFR inhibition
# EGFR, sequence (P00533 25-1210): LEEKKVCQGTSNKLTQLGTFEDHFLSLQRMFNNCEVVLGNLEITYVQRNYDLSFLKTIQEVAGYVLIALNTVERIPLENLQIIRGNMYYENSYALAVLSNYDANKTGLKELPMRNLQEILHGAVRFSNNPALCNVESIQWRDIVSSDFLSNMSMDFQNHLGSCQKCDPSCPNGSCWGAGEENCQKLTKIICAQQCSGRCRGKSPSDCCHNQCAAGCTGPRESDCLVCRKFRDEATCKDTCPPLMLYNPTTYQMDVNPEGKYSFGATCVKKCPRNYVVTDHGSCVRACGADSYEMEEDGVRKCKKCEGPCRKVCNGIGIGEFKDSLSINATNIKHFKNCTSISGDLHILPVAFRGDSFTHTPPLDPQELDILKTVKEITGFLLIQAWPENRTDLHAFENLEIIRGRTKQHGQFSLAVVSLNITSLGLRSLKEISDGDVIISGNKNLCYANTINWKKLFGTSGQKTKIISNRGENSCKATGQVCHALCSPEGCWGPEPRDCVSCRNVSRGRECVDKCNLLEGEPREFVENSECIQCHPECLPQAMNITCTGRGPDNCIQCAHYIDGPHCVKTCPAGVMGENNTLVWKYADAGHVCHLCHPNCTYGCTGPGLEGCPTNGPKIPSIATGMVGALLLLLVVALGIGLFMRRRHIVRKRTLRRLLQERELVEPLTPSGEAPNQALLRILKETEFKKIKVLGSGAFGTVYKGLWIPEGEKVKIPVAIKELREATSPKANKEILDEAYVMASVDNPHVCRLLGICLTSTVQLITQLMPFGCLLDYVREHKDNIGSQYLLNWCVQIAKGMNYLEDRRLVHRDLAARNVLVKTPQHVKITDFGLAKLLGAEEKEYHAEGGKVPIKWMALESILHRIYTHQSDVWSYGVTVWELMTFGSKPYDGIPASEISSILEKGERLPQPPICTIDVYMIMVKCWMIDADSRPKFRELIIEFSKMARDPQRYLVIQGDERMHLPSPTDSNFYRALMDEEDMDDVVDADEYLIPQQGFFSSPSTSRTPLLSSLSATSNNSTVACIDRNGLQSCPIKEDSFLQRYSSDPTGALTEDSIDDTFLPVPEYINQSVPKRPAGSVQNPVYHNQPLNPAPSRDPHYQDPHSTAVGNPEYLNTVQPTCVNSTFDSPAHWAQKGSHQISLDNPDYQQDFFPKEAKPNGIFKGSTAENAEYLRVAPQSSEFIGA
# MALME-3M = assay: NCI cytotoxicity screen; format: cell-based, human; conditions: for GI %: 10.0 μM one dose, MALME-3M; for GI50: Homo sapiens, Malme-3M
# T-47D cells = assay: Cell cycle analysis; format: cell-based; conditions: compound at IC50 concentration
# OVCAR-5 = assay: NCI cytotoxicity screen; format: cell-based, human; conditions: for GI %: 10.0 μM one dose, IGROV-5; for GI50: Homo sapiens, OVCAR-5
# COX-2 = biological target: T1, COX-2 (Ovis aries, UniProt P79208); assay: Colorimetric COX; format: biochemical, ovine
# T1 sequence (P79208 17-603): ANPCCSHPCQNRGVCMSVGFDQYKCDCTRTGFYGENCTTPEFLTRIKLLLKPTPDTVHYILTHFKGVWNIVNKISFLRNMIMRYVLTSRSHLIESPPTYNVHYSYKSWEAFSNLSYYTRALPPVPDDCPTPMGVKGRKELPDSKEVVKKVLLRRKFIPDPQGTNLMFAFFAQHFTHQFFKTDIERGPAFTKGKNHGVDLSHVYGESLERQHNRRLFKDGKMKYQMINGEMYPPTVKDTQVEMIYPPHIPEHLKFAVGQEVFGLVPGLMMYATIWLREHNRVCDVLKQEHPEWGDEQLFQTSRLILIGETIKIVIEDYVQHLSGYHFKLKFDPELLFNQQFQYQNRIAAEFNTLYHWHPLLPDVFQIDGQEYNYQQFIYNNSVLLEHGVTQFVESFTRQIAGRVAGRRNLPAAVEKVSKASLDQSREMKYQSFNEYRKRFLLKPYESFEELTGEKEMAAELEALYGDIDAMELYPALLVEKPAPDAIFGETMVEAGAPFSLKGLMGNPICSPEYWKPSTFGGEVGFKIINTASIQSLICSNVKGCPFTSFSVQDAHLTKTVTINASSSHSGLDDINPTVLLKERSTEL
# SF-268 = assay: NCI cytotoxicity screen; format: cell-based, human; conditions: for GI %: 10.0 μM one dose; for GI50: Homo sapiens
# NCI-H322M = assay: NCI cytotoxicity screen; format: cell-based, human; conditions: for GI %: 10.0 μM one dose; for GI50: Homo sapiens
# UACC-62 = assay: NCI cytotoxicity screen; format: cell-based, human; conditions: for GI %: 10.0 μM one dose; for GI50: Homo sapiens
# SN12C = assay: NCI cytotoxicity screen; format: cell-based, human; conditions: for GI %: 10.0 μM one dose, SN-12C; for GI50: Homo sapiens, SN12C
# CAKI-1 = assay: NCI cytotoxicity screen; format: cell-based, human; conditions: for GI %: 10.0 μM one dose; for GI50: Homo sapiens
# [5] = system: Leukemia subpanel tumor cell lines; assay: NCI cytotoxicity screen, subpanel; format: cell-based, human; conditions: for CC50: read-out: LC50; for GI50 / TGI: subpanel value, Leukemia
# SR = assay: NCI cytotoxicity screen; format: cell-based, human; conditions: for GI %: 10.0 μM one dose; for GI50: Homo sapiens
# [6] = system: CNS cancer subpanel tumor cell lines; assay: NCI cytotoxicity screen, subpanel; format: cell-based, human; conditions: for CC50: read-out: LC50; for GI50 / TGI: subpanel value, CNS cancer
# PC-3 = assay: NCI cytotoxicity screen; format: cell-based, human; conditions: for GI %: 10.0 μM one dose; for GI50: Homo sapiens
# BT-549 = assay: NCI cytotoxicity screen; format: cell-based, human; conditions: for GI %: 10.0 μM one dose; for GI50: Homo sapiens
# COLO 205 = assay: NCI cytotoxicity screen; format: cell-based, human; conditions: for GI %: 10.0 μM one dose, COLO-205; for GI50: Homo sapiens, COLO 205
# HOP-62 = assay: NCI cytotoxicity screen; format: cell-based, human; conditions: for GI %: 10.0 μM one dose; for GI50: Homo sapiens
# [7] = system: Prostate cancer subpanel tumor cell lines; assay: NCI cytotoxicity screen, subpanel; format: cell-based, human; conditions: for CC50: read-out: LC50; for GI50 / TGI: subpanel value, Prostate cancer
# UO-31 = assay: NCI cytotoxicity screen; format: cell-based, human; conditions: for GI %: 10.0 μM one dose; for GI50: Homo sapiens
# SNB-19 = assay: NCI cytotoxicity screen; format: cell-based, human; conditions: for GI %: 10.0 μM one dose; for GI50: Homo sapiens
# CDK9 = CDK9 (Homo sapiens, UniProt P50750); assay: biochemical; conditions: IC50 CDK9 inhibition
# CDK9, sequence (P50750 whole entry): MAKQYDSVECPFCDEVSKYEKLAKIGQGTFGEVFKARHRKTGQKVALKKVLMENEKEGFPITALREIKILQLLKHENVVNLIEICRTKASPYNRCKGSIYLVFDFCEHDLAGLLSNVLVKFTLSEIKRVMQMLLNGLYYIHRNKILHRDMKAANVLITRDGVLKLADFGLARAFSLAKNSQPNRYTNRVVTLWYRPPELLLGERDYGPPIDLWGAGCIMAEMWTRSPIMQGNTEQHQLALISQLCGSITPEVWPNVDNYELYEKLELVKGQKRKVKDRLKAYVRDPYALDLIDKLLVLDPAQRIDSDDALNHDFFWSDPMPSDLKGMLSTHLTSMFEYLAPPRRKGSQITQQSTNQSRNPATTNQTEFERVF
# CDK9, sequence (O60563 whole entry partner): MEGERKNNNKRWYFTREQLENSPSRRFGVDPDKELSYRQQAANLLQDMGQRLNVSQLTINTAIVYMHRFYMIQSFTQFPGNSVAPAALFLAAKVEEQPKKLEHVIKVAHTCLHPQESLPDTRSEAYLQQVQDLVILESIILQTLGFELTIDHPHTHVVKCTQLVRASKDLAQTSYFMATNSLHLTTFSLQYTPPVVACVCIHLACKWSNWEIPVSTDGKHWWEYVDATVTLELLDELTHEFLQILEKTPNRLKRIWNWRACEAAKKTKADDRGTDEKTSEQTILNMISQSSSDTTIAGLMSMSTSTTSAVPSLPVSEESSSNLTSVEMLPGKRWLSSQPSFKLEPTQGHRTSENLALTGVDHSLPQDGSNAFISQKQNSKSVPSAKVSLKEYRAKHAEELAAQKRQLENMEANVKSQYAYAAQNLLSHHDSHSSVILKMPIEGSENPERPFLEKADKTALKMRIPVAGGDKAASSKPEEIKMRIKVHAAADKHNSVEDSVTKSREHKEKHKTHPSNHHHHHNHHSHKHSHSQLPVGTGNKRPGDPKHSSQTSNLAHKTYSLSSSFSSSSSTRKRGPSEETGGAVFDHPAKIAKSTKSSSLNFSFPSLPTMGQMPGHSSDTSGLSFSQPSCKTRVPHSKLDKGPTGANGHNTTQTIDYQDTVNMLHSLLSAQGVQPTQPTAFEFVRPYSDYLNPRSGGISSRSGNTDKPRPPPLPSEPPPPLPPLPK
# MOLT4 cells [8] = assay: Cell cycle analysis; format: cell-based; conditions: compound at IC50 concentration
# MOLT4 cells [9] = assay: Annexin V-FITC/PI apoptosis assay; format: cell-based
# A498 = assay: NCI cytotoxicity screen; format: cell-based, human; conditions: Homo sapiens, A498
compound,measurement,setting,value
"CCN(CC)c1ccc(C=NNC(=O)CSc2nc3ccccc3c(=O)n2Cc2ccc(S(N)(=O)=O)cc2)c(O)c1 [Compound 5, 4-((2-((2-(2-(4-(Diethylamino)-2-hydroxybenzylidene)hydrazineyl)-2-oxoethyl)thio)-4-oxoquinazolin-3(4H)-yl)methyl)benzenesulfonamide]",CC50,[1]; Homo sapiens,> 100000 nM
same,GI50,[1]; Homo sapiens,1900 nM
same,GI50,[1],1920 nM
same,TGI,[1],91540 nM
same,CC50,[2]; Homo sapiens,> 100000 nM
same,GI50,[2]; Homo sapiens,15100 nM
same,GI50,[2],15100 nM
same,TGI,[2],c (Compounds showed values > 100 μM)
same,GI %,SF-295,80%
same,GI50,SF-295,1470 nM
same,GI50,K-562 [3],592 nM
same,GI %,HL-60(TB),120%
same,GI %,TK-10,85%
same,GI50,TK-10,1660 nM
same,IC50,HER2,53.9 nM
same,GI %,HT29,68%
same,GI50,HT29,3010 nM
same,GI %,HS 578T,37%
same,GI50,HS 578T,2110 nM
same,GI %,K-562 [4],94%
same,GI %,MDA-MB-468,110%
same,GI50,MDA-MB-468,524 nM
same,IC50,EGFR,84.4 nM
same,GI %,MALME-3M,69%
same,GI50,MALME-3M,1090 nM
same,%G0-G1,T-47D cells,46.31%
same,%G2-M,T-47D cells,26.3%
same,%S,T-47D cells,20.9%
same,%G2-M,T-47D cells; listed as Five,26.27%
same,%S,T-47D cells; listed as Five,27.42%
same,GI %,OVCAR-5,45%
same,GI50,OVCAR-5,2090 nM
same,IC50,COX-2,3320 ± 60 nM
same,GI %,SF-268,82%
same,GI50,SF-268,766 nM
same,GI %,NCI-H322M,67%
same,GI50,NCI-H322M,575 nM
same,GI %,UACC-62,94%
same,GI50,UACC-62,886 nM
same,GI %,SN12C,68%
same,GI50,SN12C,1930 nM
same,GI %,CAKI-1,69%
same,GI50,CAKI-1,1020 nM
same,CC50,[5]; Homo sapiens,> 100000 nM
same,GI50,[5]; Homo sapiens,400 nM
same,GI50,[5],384 nM
same,TGI,[5],68371 nM
same,GI %,SR,90%
same,GI50,SR,212 nM
same,CC50,[6]; Homo sapiens,> 100000 nM
same,GI50,[6]; Homo sapiens,1500 nM
same,GI50,[6],1490 nM
same,TGI,[6],c (Compounds showed values > 100 μM)
same,GI %,PC-3,51%
same,GI50,PC-3,829 nM
same,GI %,BT-549,67%
same,GI50,BT-549,2680 nM
same,GI %,COLO 205,102%
same,GI50,COLO 205,1510 nM
same,GI %,HOP-62,79%
same,GI50,HOP-62,961 nM
same,CC50,[7]; Homo sapiens,> 100000 nM
same,GI50,[7]; Homo sapiens,900 nM
same,GI50,[7],886 nM
same,TGI,[7],c (Compounds showed values > 100 μM)
same,GI %,UO-31,54%
same,GI50,UO-31,2890 nM
same,GI %,SNB-19,59%
same,GI50,SNB-19,2100 nM
same,IC50,CDK9,147 ± 3.6 nM
"NS(=O)(=O)c1ccc(Cn2c(SCC(=O)NN=Cc3ccccc3O)nc3ccccc3c2=O)cc1 [Compound 6, 4-((2-((2-(2-(2-Hydroxybenzylidene)hydrazineyl)-2-oxoethyl)thio)-4-oxoquinazolin-3(4H)-yl)methyl)benzenesulfonamide]",%G0-G1,MOLT4 cells [8],89.04%
same,%G2-M,MOLT4 cells [8],1.40%
same,GI %,SF-295,35%
same,GI %,HL-60(TB),60%
same,GI %,TK-10,47%
same,IC50,HER2,44.1 nM
same,GI %,HT29,14%
same,GI %,HS 578T,29%
same,GI %,K-562 [4],64%
same,GI %,MDA-MB-468,48%
same,IC50,EGFR,51.5 nM
same,GI %,MALME-3M,41%
same,GI %,OVCAR-5,32%
same,IC50,COX-2,4470 ± 90 nM
same,GI %,SF-268,62%
same,GI %,NCI-H322M,53%
same,GI %,UACC-62,62%
same,GI %,SN12C,44%
same,GI %,CAKI-1,46%
same,GI %,SR,76%
same,GI %,PC-3,33%
same,GI %,BT-549,44%
same,GI %,COLO 205,71%
same,Apoptosis Early,MOLT4 cells [9],19.2% and 19.22%
same,Apoptosis Total,MOLT4 cells [9],35.06%
same,Necrosis,MOLT4 cells [9],3.23%
same,GI %,HOP-62,65%
same,GI %,UO-31,39%
same,GI %,SNB-19,45%
same,IC50,CDK9,96.1 nM
"C#Cc1cccc(Nc2ncnc3cc(OCCOC)c(OCCOC)cc23)c1 [Erlotinib, reference compound]",CC50,[1]; Homo sapiens,89200 nM
same,GI50,[1]; Homo sapiens,2500 nM
same,GI50,[1],2460 nM
same,TGI,[1],42590 nM
same,CC50,[2]; Homo sapiens,97100 nM
same,GI50,[2],5520 nM
same,TGI,[2],74410 nM
same,GI50,SF-295,15800 nM
same,GI50,K-562 [3],15500 nM
same,GI50,TK-10,100 nM
same,GI50,HT29,50100 nM
same,GI50,HS 578T,6300 nM
same,GI50,MDA-MB-468,200 nM
same,GI50,MALME-3M,5010 nM
same,GI50,A498,1580 nM
same,GI50,OVCAR-5,20000 nM
same,GI50,SF-268,20000 nM
same,GI50,NCI-H322M,50 nM
same,GI50,UACC-62,1250 nM
same,GI50,SN12C,6300 nM
same,GI50,CAKI-1,100 nM
same,CC50,[5]; Homo sapiens,> 100000 nM
same,GI50,[5]; Homo sapiens,27900 nM
same,GI50,[5],27800 nM
same,TGI,[5],96570 nM
same,GI50,SR,6300 nM
same,CC50,[6]; Homo sapiens,> 100000 nM
same,GI50,[6]; Homo sapiens,17000 nM
same,GI50,[6],17000 nM
same,TGI,[6],82110 nM
same,GI50,PC-3,50100 nM
same,GI50,BT-549,39800 nM
same,GI50,COLO 205,31600 nM
same,GI50,HOP-62,12600 nM
same,CC50,[7]; Homo sapiens,> 100000 nM
same,GI50,[7]; Homo sapiens,20900 nM
same,TGI,[7],c (Compounds showed values > 100 μM)
same,GI50,UO-31,1990 nM
same,GI50,SNB-19,3980 nM
"COc1cc2ncnc(Nc3ccc(F)c(Cl)c3)c2cc1OCCCN1CCOCC1 [Gefitinib, reference compound]",GI50,[2]; Homo sapiens,3300 nM
same,GI50,[2],3050 nM
same,TGI,[2],33290 nM
same,GI50,SF-295,1990 nM
same,GI50,K-562 [3],2510 nM
same,GI50,TK-10,100 nM
same,GI50,HT29,3980 nM
same,GI50,HS 578T,10000 nM
same,GI50,MDA-MB-468,10 nM
same,GI50,MALME-3M,3160 nM
same,GI50,A498,400 nM
same,GI50,OVCAR-5,10000 nM
same,GI50,SF-268,7940 nM
same,GI50,NCI-H322M,80 nM
same,GI50,UACC-62,5010 nM
same,GI50,CAKI-1,160 nM
same,GI50,[5]; Homo sapiens,2600 nM
same,GI50,[5],2560 nM
same,TGI,[5],12070 nM
same,GI50,SR,3160 nM
same,GI50,[6]; Homo sapiens,5600 nM
same,GI50,[6],5640 nM
same,TGI,[6],19620 nM
same,GI50,BT-549,7940 nM
same,GI50,HOP-62,10000 nM
same,GI50,[7]; Homo sapiens,3300 nM
same,GI50,[7],3290 nM
same,TGI,[7],31620 nM
same,GI50,UO-31,1250 nM
same,GI50,SNB-19,12600 nM

# Reference: publication PMC11702208 (RSC Advances, 2025)
